Data as given in patent publication US20240270762A1, “PENICILLIN-BINDING PROTEIN INHIBITORS” (priority 2021, published 2024).
Values after ≈ are worked out from the molar mass of the structure shown. Read-outs that look alike come from different tables or passages of the source.

Legend:
[1] = tested on: B. thailandensis ATCC 700388; assay: microbe, parasite or virus in culture; type: cell-based; conditions: Burkholderia thailandensis, ATCC700388, read-out: Minimum inhibitory concentration (MIC), B. thailandensis ATCC 700388
P. aeruginosa ATCC 27853 = assay: microbe, parasite or virus in culture; type: cell-based; conditions: Pseudomonas aeruginosa, ATCC27853, read-out: Minimum inhibitory concentration, P. aeruginosa ATCC 27853
A. baumannii 1258916 = assay: microbe, parasite or virus in culture; type: cell-based, Acinetobacter baumannii; conditions: Acinetobacter baumannii, 1258916, read-out: MIC, A. baumannii 1258916
N. gonorrhoeae CDC-0197 = assay: Liquid broth MIC in Fastidious broth; conditions: Neisseria gonorrhoeae
A. baumannii ATCC 17978 = assay: microbe, parasite or virus in culture; type: cell-based; conditions: Acinetobacter baumannii, ATCC17978, read-out: MIC, A. baumannii ATCC 17978
A. baumannii ATCC 19606 = assay: microbe, parasite or virus in culture; type: cell-based; conditions: Acinetobacter baumannii, ATCC19606, read-out: MIC, A. baumannii ATCC 19606
A. baumannii CDC-0045 = assay: microbe, parasite or virus in culture; type: cell-based; conditions: Acinetobacter baumannii, CDC0045, read-out: MIC, A. baumannii CDC-0045
N. gonorrhoeae WHO Q = assay: Liquid broth MIC in Fastidious broth; conditions: Neisseria gonorrhoeae
P. aeruginosa ATCC 35151 = assay: microbe, parasite or virus in culture; type: cell-based; conditions: Pseudomonas aeruginosa, ATCC35151, read-out: Minimum inhibitory concentration, P. aeruginosa ATCC 35151
[2] = tested on: B. humptydooensis ATCC BAA-2767; assay: microbe, parasite or virus in culture; type: cell-based; conditions: Burkholderia humptydooensis, ATCCBAA2767, read-out: Minimum inhibitory concentration (MIC), B. humptydooensis ATCC BAA-2767
[3] = tested on: P. aeruginosa (ΔmexAB-oprM); assay: Broth microdilution MIC in iron-depleted CAMHB (IDM); type: cell-based; conditions: Pseudomonas aeruginosa; iron-depleted CAMHB (IDM); […]; read-out: Minimum inhibitory concentration, P. aeruginosa ΔmexAB-oprM
P. aeruginosa CDC-0090 = assay: microbe, parasite or virus in culture; type: cell-based; conditions: Pseudomonas aeruginosa, CDC0090, read-out: Minimum inhibitory concentration, P. aeruginosa CDC-0090
P. aeruginosa CDC-0110 = assay: microbe, parasite or virus in culture; type: cell-based; conditions: Pseudomonas aeruginosa, CDC0110, read-out: Minimum inhibitory concentration, P. aeruginosa CDC-0110
A. baumannii CDC-0036 = assay: microbe, parasite or virus in culture; type: cell-based; conditions: Acinetobacter baumannii, CDC0036, read-out: MIC, A. baumannii CDC-0036
N. gonorrhoeae WHO X = assay: Liquid broth MIC in Fastidious broth; conditions: Neisseria gonorrhoeae
[4] = CDC0197, read-out: Minimum Inhibitory Concentration, CDC-0197
[5] = read-out: Minimum Inhibitory Concentration, WHO Q
[6] = read-out: Minimum Inhibitory Concentration, WHO X
[7] = CDC0197, read-out: Minimum Inhibitory Concentration (MIC), N. gonorrhoeae CDC-0197
[8] = read-out: Minimum Inhibitory Concentration (MIC), N. gonorrhoeae WHO Q
[9] = read-out: Minimum Inhibitory Concentration (MIC), N. gonorrhoeae WHO X

SMILES | MIC [1] [µg/mL] | MIC (P. aeruginosa ATCC 27853) [µg/mL] | MIC (A. baumannii 1258916) [µg/mL] | MIC (N. gonorrhoeae CDC-0197; [4]) [µg/mL] | MIC (A. baumannii ATCC 17978) [µg/mL] | MIC (A. baumannii ATCC 19606) [µg/mL] | MIC (A. baumannii CDC-0045) [µg/mL] | MIC (N. gonorrhoeae WHO Q; [5]) [µg/mL] | MIC (P. aeruginosa ATCC 35151) [µg/mL] | MIC [2] [µg/mL] | MIC [3] [µg/mL] | MIC (P. aeruginosa CDC-0090) [µg/mL] | MIC (P. aeruginosa CDC-0110) [µg/mL] | MIC (A. baumannii CDC-0036) [µg/mL] | MIC (N. gonorrhoeae WHO X; [6]) [µg/mL] | MIC (N. gonorrhoeae CDC-0197; [7]) [µg/mL] | MIC (N. gonorrhoeae WHO Q; [8]) [µg/mL] | MIC (N. gonorrhoeae WHO X; [9]) [µg/mL]
O=C(NCCS(=O)(=O)N1CCN(C(=O)N[C@@H](C(=O)N[C@H]2Cc3ccc(F)c(C(=O)O)c3OB2O)c2cc(F)c(O)c(O)c2Cl)C1=O)Nc1cccnc1 [Example 267, (R)-3-((R)-2-(2-chloro-5-fluoro-3,4-dihydroxyphenyl)-2-(2-oxo-3-((2-(3-(pyridin-3-yl)ureido)ethyl)sulfonyl)imidazolidine-1-carboxamido)acetamido)-7-fluoro-2-hydroxy-3,4-dihydro-2H-benzo[e][1,2]oxaborinine-8-carboxylic acid] | 2 to 4 (≈ 2.56 to 5.12 µM) | 2 to 4 (≈ 2.56 to 5.12 µM) | < 1 | 16 to 32 (≈ 20.5 to 40.9 µM) | < 1 | < 1 | < 1 | 16 to 32 (≈ 20.5 to 40.9 µM) | < 1 | 2 to 4 (≈ 2.56 to 5.12 µM) | < 1 | 2 to 4 (≈ 2.56 to 5.12 µM) | 2 to 4 (≈ 2.56 to 5.12 µM) | 2 to 4 (≈ 2.56 to 5.12 µM) | > 64 | – | – | –
O=C(O)c1c(F)ccc2c1OB(O)[C@@H](NC(=O)C(NC(=O)N1CCN(S(=O)(=O)CCCNC(=O)[C@@H]3CCCN3)C1=O)c1cc(F)c(O)c(O)c1Cl)C2 (stereo partly drawn) [Example 275, (3R)-3-(2-(2-chloro-5-fluoro-3,4-dihydroxyphenyl)-2-(2-oxo-3-((3-((S)-pyrrolidine-2-carboxamido)propyl)sulfonyl)imidazolidine-1-carboxamido)acetamido)-7-fluoro-2-hydroxy-3,4-dihydro-2H-benzo[e][1,2]oxaborinine-8-carboxylic acid] | < 1 | 2 to 4 (≈ 2.59 to 5.18 µM) | < 1 | 16 to 32 (≈ 20.7 to 41.4 µM) | < 1 | < 1 | < 1 | 16 to 32 (≈ 20.7 to 41.4 µM) | < 1 | < 1 | < 1 | 8 to 16 (≈ 10.4 to 20.7 µM) | < 1 | 2 to 4 (≈ 2.59 to 5.18 µM) | > 64 | – | – | –
O=C(CN1CCN(C(=O)NC(C(=O)N[C@H]2Cc3ccc(F)c(C(=O)O)c3OB2O)c2cc(F)c(O)c(O)c2Cl)C(=O)C1=O)NCc1cccc(O)c1 (stereo partly drawn) [Example 237, (3R)-3-(2-(2-chloro-5-fluoro-3,4-dihydroxyphenyl)-2-(4-(2-((3-hydroxybenzyl)amino)-2-oxoethyl)-2,3-dioxopiperazine-1-carboxamido)acetamido)-7-fluoro-2-hydroxy-3,4-dihydro-2H-benzo[e][1,2]oxaborinine-8-carboxylic acid] | 8 to 16 (≈ 10.7 to 21.5 µM) | 2 to 4 (≈ 2.68 to 5.36 µM) | 2 to 4 (≈ 2.68 to 5.36 µM) | – | < 1 | < 1 | 8 to 16 (≈ 10.7 to 21.5 µM) | – | < 1 | 2 to 4 (≈ 2.68 to 5.36 µM) | < 1 | 2 to 4 (≈ 2.68 to 5.36 µM) | < 1 | 8 to 16 (≈ 10.7 to 21.5 µM) | – | 16 to 32 (≈ 21.5 to 42.9 µM) | > 64 | > 64
CN(CCN1CCN(C(=O)N[C@@H](C(=O)N[C@H]2Cc3ccc(F)c(C(=O)O)c3OB2O)c2cc(F)c(O)c(O)c2Cl)C(=O)C1=O)Cc1ccc(N)nc1 [Example 209, (R)-3-((R)-2-(4-(2-(((6-aminopyridin-3-yl)methyl)(methyl)amino)ethyl)-2,3-dioxopiperazine-1-carboxamido)-2-(2-chloro-5-fluoro-3,4-dihydroxyphenyl)acetamido)-7-fluoro-2-hydroxy-3,4-dihydro-2H-benzo[e][1,2]oxaborinine-8-carboxylic acid] | < 1 | < 1 | < 1 | – | < 1 | < 1 | < 1 | – | < 1 | < 1 | < 1 | < 1 | < 1 | 2 to 4 (≈ 2.68 to 5.36 µM) | – | 16 to 32 (≈ 21.5 to 42.9 µM) | 16 to 32 (≈ 21.5 to 42.9 µM) | > 64
O=C(NCCCN1CCN(C(=O)NC(C(=O)N[C@H]2Cc3ccc(F)c(C(=O)O)c3OB2O)c2cc(F)c(O)c(O)c2Cl)C(=O)C1=O)Nc1ccncc1 (stereo partly drawn) [Example 228, (3R)-3-(2-(2-chloro-5-fluoro-3,4-dihydroxyphenyl)-2-(2,3-dioxo-4-(3-(3-(pyridin-4-yl)ureido)propyl)piperazine-1-carboxamido)acetamido)-7-fluoro-2-hydroxy-3,4-dihydro-2H-benzo[e][1,2]oxaborinine-8-carboxylic acid] | < 1 | < 1 | < 1 | – | < 1 | < 1 | < 1 | – | < 1 | < 1 | < 1 | 2 to 4 (≈ 2.63 to 5.26 µM) | < 1 | 2 to 4 (≈ 2.63 to 5.26 µM) | – | > 64 | > 64 | > 64
O=C(NCCCN1CCN(C(=O)NC(C(=O)N[C@H]2Cc3ccc(F)c(C(=O)O)c3OB2O)c2cc(F)c(O)c(O)c2Cl)C(=O)C1=O)c1nccs1 (stereo partly drawn) [Example 211, (3R)-3-(2-(2-chloro-5-fluoro-3,4-dihydroxyphenyl)-2-(2,3-dioxo-4-(3-(thiazole-2-carboxamido)propyl)piperazine-1-carboxamido)acetamido)-7-fluoro-2-hydroxy-3,4-dihydro-2H-benzo[e][1,2]oxaborinine-8-carboxylic acid] | 2 to 4 (≈ 2.66 to 5.33 µM) | 2 to 4 (≈ 2.66 to 5.33 µM) | < 1 | – | < 1 | < 1 | < 1 | – | < 1 | < 1 | < 1 | < 1 | < 1 | 2 to 4 (≈ 2.66 to 5.33 µM) | – | 16 to 32 (≈ 21.3 to 42.6 µM) | > 64 | > 64
O=C(NCCCN1CCN(C(=O)N[C@@H](C(=O)N[C@H]2Cc3ccc(F)c(C(=O)O)c3OB2O)c2cc(F)c(O)c(O)c2Cl)C(=O)C1=O)c1cccnc1 [Example 210, (R)-3-((R)-2-(2-chloro-5-fluoro-3,4-dihydroxyphenyl)-2-(4-(3-(nicotinamido)propyl)-2,3-dioxopiperazine-1-carboxamido)acetamido)-7-fluoro-2-hydroxy-3,4-dihydro-2H-benzo[e][1,2]oxaborinine-8-carboxylic acid] | < 1 | 2 to 4 (≈ 2.69 to 5.37 µM) | < 1 | – | < 1 | < 1 | < 1 | – | < 1 | < 1 | < 1 | < 1 | < 1 | 2 to 4 (≈ 2.69 to 5.37 µM) | – | > 64 | > 64 | > 64
O=C(NCCCS(=O)(=O)N1CCN(C(=O)NC(C(=O)N[C@H]2Cc3ccc(F)c(C(=O)O)c3OB2O)c2cc(F)c(O)c(O)c2Cl)C1=O)c1nccs1 (stereo partly drawn) [Example 274, (3R)-3-(2-(2-chloro-5-fluoro-3,4-dihydroxyphenyl)-2-(2-oxo-3-((3-(thiazole-2-carboxamido)propyl)sulfonyl)imidazolidine-1-carboxamido)acetamido)-7-fluoro-2-hydroxy-3,4-dihydro-2H-benzo[e][1,2]oxaborinine-8-carboxylic acid] | > 128 | 2 to 4 (≈ 2.54 to 5.08 µM) | < 1 | 16 to 32 (≈ 20.3 to 40.7 µM) | < 1 | < 1 | < 1 | 16 to 32 (≈ 20.3 to 40.7 µM) | < 1 | 2 to 4 (≈ 2.54 to 5.08 µM) | < 1 | 2 to 4 (≈ 2.54 to 5.08 µM) | 2 to 4 (≈ 2.54 to 5.08 µM) | 2 to 4 (≈ 2.54 to 5.08 µM) | > 64 | – | – | –
O=C(NCCS(=O)(=O)N1CCN(C(=O)NC(C(=O)N[C@H]2Cc3ccc(F)c(C(=O)O)c3OB2O)c2cc(F)c(O)c(O)c2Cl)C1=O)c1cccc(O)c1 (stereo partly drawn) [Example 261, (3R)-3-(2-(2-chloro-5-fluoro-3,4-dihydroxyphenyl)-2-(3-((2-(3-hydroxybenzamido)ethyl)sulfonyl)-2-oxoimidazolidine-1-carboxamido)acetamido)-7-fluoro-2-hydroxy-3,4-dihydro-2H-benzo[e][1,2]oxaborinine-8-carboxylic acid] | 2 to 4 (≈ 2.56 to 5.12 µM) | 2 to 4 (≈ 2.56 to 5.12 µM) | < 1 | 16 to 32 (≈ 20.5 to 40.9 µM) | < 1 | < 1 | < 1 | 16 to 32 (≈ 20.5 to 40.9 µM) | < 1 | 2 to 4 (≈ 2.56 to 5.12 µM) | < 1 | 2 to 4 (≈ 2.56 to 5.12 µM) | 2 to 4 (≈ 2.56 to 5.12 µM) | 2 to 4 (≈ 2.56 to 5.12 µM) | > 64 | – | – | –
